Like-named read-outs stand apart in the source and are kept apart here. Values belong to the compound of their own block, whether it stands above or below them.
Legend:
[1] = system: platelets in whole blood (VN isoTRAP and ADP+PGE1 channels); assay: In vitro VerifyNow IIb/IIIa and PRU cartridges in whole blood from healthy volunteers; type: cell-based, human; conditions: 30-900 nM, 10 minutes at room temperature
Experimental: Whole blood anticoagulated with either sodium citrate (0.32%) or PPACK ([…]) from healthy volunteers who were either taking or not taking daily aspirin was treated in vitro with Compound (I) (RUC-4) to achieve final whole blood concentrations between 30 and 900 nM. Blood was incubated for 10 minutes at room temperature and then tested with either the IIb/IIIa or PRU cartridge.

[2] = system: PAR1/PAR4-induced platelet aggregation (BASE Channel); assay: VerifyNow P2Y12 assay BASE channel platelet inhibition in STEMI patients (CEL-02 trial); type: in vivo, human; conditions: for inhibition at 0.075 mg/kg / inhibition at 0.09 mg/kg / inhibition at 0.11 mg/kg: Homo sapiens, Platelet; for inhibition at 0.075 mg/kg: 0.075 mg/kg SC; for inhibition at 0.09 mg/kg: 0.090 mg/kg SC; for inhibition at 0.11 mg/kg: 0.11 mg/kg SC
Text: The open-label, dose escalating, phase 2, CEL-02 trial set out to assess the pharmacodynamics (PD), pharmacokinetics (PK), safety and tolerability of RUC-4 in STEMI patients treated with aspirin and ticagrelor in the ambulance undergoing primary percutaneous coronary intervention (pPCI). STEMI patients presenting for pPCI at the St. Antonius Hospital Nieuwegein, the Netherlands, received a single, weight-adjusted, subcutaneous injection of RUC-4 before coronary angiography. After assessment of every 8 evaluable patients, the dose was escalated to reach an optimal dose for platelet inhibition. All patients were concomitantly treated with aspirin, ticagrelor and unfractionated heparin (UFH)(5000 IU) in the ambulance. Additional UFH during PCI was only administered when ACT was <200 seconds (2500-5000 IU). Blood samples for (PD) and (PK) were taken before RUC-4 administration, and 15, 45, 60, 90, 120, 180, and 240 minutes thereafter. Platelet inhibition was measured by the VerifyNow P2Y12 assay BASE channel which uses a protease activated receptor-1 (PAR-1) peptide (iso-TRAP) and a PAR-4 activating peptide as agonists, overriding platelet inhibition by oral P2Y12 inhibitors.

[3] = system: platelet aggregation to adenosine diphosphate (ADP; 20 μM); assay: Inhibition of platelet aggregation (IPA) to ADP (20 μM) after SC injection in healthy volunteers and stable CAD patients on aspirin; type: in vivo, human; conditions: for mean±SD IPA / IPA: 15 minutes after injection; for IPA: stable CAD patients on aspirin
Experimental: Sequentially, healthy volunteers (HV) and then patients with stable coronary disease (CAD) receiving aspirin received escalating doses of RUC-4 or placebo in a sentinel dose, randomized, blinded fashion. Inhibition of platelet aggregation (IPA) to adenosine diphosphate (ADP; 20 μM), RUC-4 blood levels, laboratory evaluations, and clinical assessments were made through 24 hours and at 7 days. Doses were increased until a dose that produced ≥80% IPA within 15 minutes, with return toward baseline within 4 hours was achieved. VerifyNow (VN) was also measured in a subset of patients with stable CAD.

[4] = system: agglutination of fibrinogen-coated beads by activated platelets; assay: VerifyNow ADP+PGE1, iso-TRAP and base channel assays; type: cell-based
Experimental: VerifyNow (VN) assays (Instrumentation Laboratories, Bedford, MA) are whole-blood, cartridge-based, and automated, and produce results within 15 minutes of blood draw. They are based on the agglutination of fibrinogen-coated beads by platelets activated by different agonists. Commercially available VN assays are designed to study the antiplatelet effects of aspirin (VN Aspirin cartridge; arachidonic acid activator) or P2Y12 antagonists (VN PRUTest cartridge and VN P2Y12 cartridge; ADP+PGE1 activator/inhibitor combination). The modified thrombin receptor activating peptide (iso-TRAP) is included in a separate reaction chamber (in addition to the ADP+PGE1 reaction chamber) in both the PRUTest and P2Y12 cartridges, and the P2Y12 cartridges further include a ‘BASE channel’ reaction chamber in which a PAR-1 activating peptide (iso-TRAP) at higher concentrations is combined with a PAR-4 activating peptide (PAR-4 AP) to achieve potent activation that can overcome the effects of P2Y12 antagonists.
VerifyNow ADP+PGE1, iso-TRAP, and base channel assays may be used to report Compound (1)-mediated inhibition in near real-time. VN assays can be used to help deconvolute antiplatelet effects of αIIbβ3 antagonists versus P2Y12 antagonists. […] The BASE channel assay was used to monitor the pharmacodynamic effects of Compound (1) independent of any P2Y12 inhibitors.

platelet aggregation = assay: Light transmission aggregometry (LTA) with activators ADP, iso-TRAP, arachidonic acid; type: cell-based
Text: Light transmission aggregometry (LTA) is considered the gold standard assay to assess the potency of antiplatelet agents, such as Compound (I), because of its association with clinical outcomes.

Structure (SMILES): NCC(=O)Nc1cncc(-c2nn3c(=O)cc(N4CCNCC4)nc3s2)c1 [RUC-4]
inhibition of the VN isoTRAP channels ([1]; IIb/IIIa and PRU cartridges): dose-dependent inhibition
inhibition of the VN ADP+PGE1 channel ([1]; PRU cartridge): dose-dependent inhibition
inhibition at 0.075 mg/kg ([2]; 0.25 h, 15 minutes post-dose, n=8, with aspirin, ticagrelor, UFH, read-out: maximal platelet inhibition, mean [SD]): 83.7%
inhibition at 0.09 mg/kg ([2]; 0.25 h, 15 minutes post-dose, n=9, with aspirin, ticagrelor, UFH, read-out: maximal platelet inhibition, mean [SD]): 89.6%
inhibition at 0.11 mg/kg ([2]; 0.25 h, 15 minutes post-dose, n=10, with aspirin, ticagrelor, UFH, read-out: maximal platelet inhibition, mean [SD]): 92.5%
inhibition at 0.075 mg/kg ([2]; 2 h, 120 minutes post-dose, n=8, read-out: platelet inhibition, mean (SD)): 17.9%
inhibition at 0.09 mg/kg ([2]; 2 h, 120 minutes post-dose, n=9, read-out: platelet inhibition, mean (SD)): 22.6%
inhibition at 0.11 mg/kg ([2]; 2 h, 120 minutes post-dose, n=10, read-out: platelet inhibition, mean (SD)): 31.6%
time to maximal platelet function inhibition ([2]; single-dose subcutaneous): ≤ 15 min
time to return of platelet function ([2]; single-dose subcutaneous): ≤ 120 min
mean±SD IPA ([3]; healthy volunteers, 0.05 mg/kg SC, n=6): 71.8±15.0%
mean±SD IPA ([3]; healthy volunteers, 0.075 mg/kg SC, n=6): 84.7±16.7%
time over which IPA diminished ([3]; healthy volunteers, in all cases, after SC injection): 90 to 120 min
IPA ([3]; 0.04 mg/kg SC, n=2): 53.6±17.0%
IPA ([3]; 0.05 mg/kg SC, n=6): 76.9±10.6%
IPA ([3]; 0.075 mg/kg SC, n=18): 88.9±12.7%
inhibition of VN ADP+PGE1 assay [4]: dramatically inhibits
inhibition of VN base channel assay [4]: dramatically inhibits
inhibition of VN iso-TRAP assay [4]: dramatically inhibits
inhibition of AA (arachidonic acid) induced LTA (platelet aggregation): dramatically inhibits
inhibition of ADP induced LTA (platelet aggregation): dramatically inhibits

effect of aspirin on RUC-4 blood levels ([3]; subjects given RUC-4 SC): did not affect
Structure (SMILES): CC(=O)Oc1ccccc1C(=O)O [aspirin]
effect of aspirin on IPA ([3]; subjects given RUC-4 SC): did not affect
inhibition of VN ADP+PGE1 assay [4]: does not inhibit
inhibition of VN base channel assay [4]: does not inhibit
inhibition of VN iso-TRAP assay [4]: does not inhibit
inhibition of ADP induced LTA (platelet aggregation): does not significantly inhibit
inhibition of iso-TRAP induced LTA (platelet aggregation): does not significantly inhibit

Structure (SMILES): CCCSc1nc(N[C@@H]2C[C@H]2c2ccc(F)c(F)c2)c2nnn([C@@H]3C[C@H](OCCO)[C@@H](O)[C@H]3O)c2n1 [ticagrelor]
inhibition of VN ADP+PGE1 assay [4]: dramatically inhibits
inhibition of VN base channel assay [4]: does not inhibit
inhibition of VN iso-TRAP assay [4]: slightly inhibits
inhibition of iso-TRAP induced LTA (platelet aggregation): slightly inhibits

From patent US20250268902A1, “THERAPEUTIC METHODS” (CeleCor Therapeutics, Inc., priority 2021, published 2025)
